Measured values taken from patent US6995143B2, “Macrolides with antibacterial activity” (Basilea Pharmaceutica AG, priority 2002, dated 2006).
≈ marks a conversion by molar mass, not a printed value.

Tests used:
Format in all cases: cell-based
[1] = system: Haemophilus influenzae B1501; assay: MIC, standard agar dilution method using HTM medium
Text: (§1) The biological activities of compounds of the present invention against Haemophilus influenzae have been determined by standard agar dilution method using HTM medium (National Committee for Clinical Laboratory Standards. 2000. Methods for Dilution Antimicrobial Susceptibility Tests for Bacteria that Grow Aerobically, 5th edition. Approved standard M7-A5. National Committee for Clinical Laboratory Standards, Wayne, Pa.).

[2] = system: Haemophilus influenzae 12214; assay: as above
Text: as §1

[3] = system: Haemophilus influenzae QK50; assay: as above
Text: as §1

[4] = system: Haemophilus influenzae QK12/87; assay: as above
Text: as §1

[5] = system: Streptococcus pneumoniae ¼; assay: MIC, standard microdilution technique
Text: (§2) The antibacterial activities of the compounds have been determined by standard microdilution technique (National Committee for Clinical Laboratory Standards. 2000. Methods for Dilution Antimicrobial Susceptibility Tests for Bacteria that Grow Aerobically, 5th edition. Approved standard M7-A5. National Committee for Clinical Laboratory Standards, Wayne, Pa.).

[6] = system: Escherichia coli ATCC 25922; assay: MIC, standard microdilution technique
Text: as §2

[7] = system: Staphylococcus aureus ATCC 29213; assay: MIC, standard microdilution technique
Text: as §2

[8] = system: Streptococcus pneumoniae SL199T; assay: MIC, standard microdilution technique
Text: as §2

[9] = system: Streptococcus pneumoniae l/l; assay: MIC, standard microdilution technique
Text: as §2

[10] = system: Staphylococcus aureus 745; assay: MIC, standard microdilution technique
Text: as §2

[11] = system: Streptococcus pneumoniae 12288; assay: MIC, standard microdilution technique
Text: as §2

[12] = system: Staphylococcus aureus 1086; assay: MIC, standard microdilution technique
Text: as §2

minimum inhibitory concentration (MIC), Strain M [1] | minimum inhibitory concentration (MIC), Strain K [2] | minimum inhibitory concentration (MIC), Strain L [3] | minimum inhibitory concentration (MIC), Strain I [4] | minimum inhibitory concentration (MIC), Strain F [5] | minimum inhibitory concentration (MIC), Strain D [6] | minimum inhibitory concentration (MIC), Strain A [7] | minimum inhibitory concentration (MIC), Strain G [8] | minimum inhibitory concentration (MIC), Strain E [9] | minimum inhibitory concentration (MIC), Strain C [10] | minimum inhibitory concentration (MIC), Strain H [11] | minimum inhibitory concentration (MIC), Strain B [12] | Compound | other results
32 µg/mL (≈ 38.5 µM) | 32 µg/mL (≈ 38.5 µM) | 32 µg/mL (≈ 38.5 µM) | >32 µg/mL | >32 µg/mL | >32 µg/mL | 1 µg/mL (≈ 1.2 µM) | 32 µg/mL (≈ 38.5 µM) | <=0.06 μg/ml | >32 µg/mL | >32 µg/mL | 1 µg/mL (≈ 1.2 µM) | CC[C@H]1OC(=O)[C@H](C)C(=O)[C@H](C)[C@@H](O[C@@H]2O[C@H](C)C[C@H](N(C)C)[C@H]2O)[C@](C)(OC)C[C@@H](C)C(=O)[C@H](C)[C@H]2[C@@H](SCC(=O)c3ccc4c(c3)CCC(=O)N4)C(=O)O[C@@]21C [Example 6] | –
>32 µg/mL | >32 µg/mL | 32 µg/mL (≈ 34.8 µM) | 32 µg/mL (≈ 34.8 µM) | 32 µg/mL (≈ 34.8 µM) | >32 µg/mL | 1 µg/mL (≈ 1.09 µM) | 16 µg/mL (≈ 17.4 µM) | <=0.06 μg/ml | >32 µg/mL | >32 µg/mL | 1 µg/mL (≈ 1.09 µM) | CC[C@H]1OC(=O)[C@H](C)C(=O)[C@H](C)[C@@H](O[C@@H]2O[C@H](C)C[C@H](N(C)C)[C@H]2O)[C@](C)(OC)C[C@@H](C)C(=O)[C@H](C)[C@H]2[C@@H](SCCNS(=O)(=O)c3cccc4c(N(C)C)cccc34)C(=O)O[C@@]21C [Example 28] | –
8 µg/mL (≈ 10.2 µM) | 8 µg/mL (≈ 10.2 µM) | 8 µg/mL (≈ 10.2 µM) | 8 µg/mL (≈ 10.2 µM) | >32 µg/mL | >32 µg/mL | 0.5 µg/mL (≈ 0.64 µM) | 32 µg/mL (≈ 41 µM) | <=0.06 μg/ml | >32 µg/mL | >32 µg/mL | 0.25 µg/mL (≈ 0.32 µM) | CC[C@H]1OC(=O)[C@H](C)C(=O)[C@H](C)[C@@H](O[C@@H]2O[C@H](C)C[C@H](N(C)C)[C@H]2O)[C@](C)(OC)C[C@@H](C)C(=O)[C@H](C)[C@H]2[C@@H](SCC(=O)NCc3ccco3)C(=O)O[C@@]21C [Example 31] | –
32 µg/mL (≈ 37.7 µM) | >32 µg/mL | >32 µg/mL | 32 µg/mL (≈ 37.7 µM) | 8 µg/mL (≈ 9.43 µM) | >32 µg/mL | 0.25 µg/mL (≈ 0.295 µM) | >32 µg/mL | <=0.06 μg/ml | >32 µg/mL | >32 µg/mL | 0.5 µg/mL (≈ 0.59 µM) | CC[C@H]1OC(=O)[C@H](C)C(=O)[C@H](C)[C@@H](O[C@@H]2O[C@H](C)C[C@H](N(C)C)[C@H]2O)[C@](C)(OC)C[C@@H](C)C(=O)[C@H](C)[C@H]2[C@@H](SCC(=O)NCc3nc4ccccc4s3)C(=O)O[C@@]21C [Example 34] | –
16 µg/mL (≈ 19 µM) | 16 µg/mL (≈ 19 µM) | 16 µg/mL (≈ 19 µM) | 16 µg/mL (≈ 19 µM) | 32 µg/mL (≈ 38 µM) | >32 µg/mL | 0.125 µg/mL (≈ 0.148 µM) | 32 µg/mL (≈ 38 µM) | <=0.06 μg/ml | >32 µg/mL | >32 µg/mL | 0.125 µg/mL (≈ 0.148 µM) | CC[C@H]1OC(=O)[C@H](C)C(=O)[C@H](C)[C@@H](O[C@@H]2O[C@H](C)C[C@H](N(C)C)[C@H]2O)[C@](C)(OC)C[C@@H](C)C(=O)[C@H](C)[C@H]2[C@@H](SCCC(=O)Nc3cnc4ccccc4c3)C(=O)O[C@@]21C (single isomer, unassigned) [Example 42] | –
32 µg/mL (≈ 41.9 µM) | 32 µg/mL (≈ 41.9 µM) | 32 µg/mL (≈ 41.9 µM) | 32 µg/mL (≈ 41.9 µM) | 32 µg/mL (≈ 41.9 µM) | >32 µg/mL | 1 µg/mL (≈ 1.31 µM) | 32 µg/mL (≈ 41.9 µM) | <=0.06 μg/ml | >32 µg/mL | >32 µg/mL | 0.5 µg/mL (≈ 0.655 µM) | CC[C@H]1OC(=O)[C@H](C)C(=O)[C@H](C)[C@@H](O[C@@H]2O[C@H](C)C[C@H](N(C)C)[C@H]2O)[C@](C)(OC)C[C@@H](C)C(=O)[C@H](C)[C@H]2[C@@H](SCC(=O)c3ccccn3)C(=O)O[C@@]21C [Example 7] | –
– | – | – | – | – | – | – | – | – | – | – | – | CC[C@H]1OC(=O)[C@H](C)C(=O)[C@H](C)[C@@H](O[C@@H]2O[C@H](C)C[C@H](N(C)C)[C@H]2O)[C@](C)(OC)C[C@@H](C)C(=O)[C@H](C)[C@H]2[C@@H](SCCNc3ccc(C#N)cn3)C(=O)O[C@@]21C (single isomer, unassigned) [Example 46, (3R or S, 3aR, 4R or S, 6R, 8R, 9R, 10R, 12R, 15R, 15aS) -3-[[2-[(5-Cyanopyridin-2-yl)amino]ethyl]thio]-15-ethyloctahydro-8-methoxy-4,6,8,10,12,15a-hexamethyl-9-[[-3,4,6-trideoxy-3-(dimethylamino)-β-D-xylo-hexopyranosyl]oxy]-2H-furo [2,3-c] oxacyclotetradecin-2,5,11,13 (3H,6H,12H)-tetrone] | MIC ([1]; read-out: minimum inhibitory concentration (MIC), Strain M): 1 µg/mL (≈ 1.27 µM); MIC ([2]; read-out: minimum inhibitory concentration (MIC), Strain K): 2 µg/mL (≈ 2.53 µM); MIC ([3]; read-out: minimum inhibitory concentration (MIC), Strain L): 4 µg/mL (≈ 5.07 µM); MIC ([4]; read-out: minimum inhibitory concentration (MIC), Strain I): 1 µg/mL (≈ 1.27 µM); MIC ([5]; read-out: minimum inhibitory concentration (MIC), Strain F): ≤ 0.06 µg/mL; MIC ([6]; ATCC25922, read-out: minimum inhibitory concentration (MIC), Strain D): > 32 µg/mL; MIC ([7]; ATCC29213, read-out: minimum inhibitory concentration (MIC), Strain A): ≤ 0.06 µg/mL; MIC ([8]; read-out: minimum inhibitory concentration (MIC), Strain G): 4 µg/mL (≈ 5.07 µM); MIC ([9]; read-out: minimum inhibitory concentration (MIC), Strain E): ≤ 0.06 µg/mL; MIC ([10]; read-out: minimum inhibitory concentration (MIC), Strain C): > 32 µg/mL; MIC ([11]; read-out: minimum inhibitory concentration (MIC), Strain H): 32 µg/mL (≈ 40.6 µM); MIC ([12]; read-out: minimum inhibitory concentration (MIC), Strain B): ≤ 0.06 µg/mL

Compound | minimum inhibitory concentration (MIC), Strain M [1] | minimum inhibitory concentration (MIC), Strain K [2] | minimum inhibitory concentration (MIC), Strain L [3] | minimum inhibitory concentration (MIC), Strain I [4] | minimum inhibitory concentration (MIC), Strain F [5] | minimum inhibitory concentration (MIC), Strain D [6] | minimum inhibitory concentration (MIC), Strain A [7] | minimum inhibitory concentration (MIC), Strain G [8] | minimum inhibitory concentration (MIC), Strain E [9] | minimum inhibitory concentration (MIC), Strain C [10] | minimum inhibitory concentration (MIC), Strain H [11] | minimum inhibitory concentration (MIC), Strain B [12] | other results
CC[C@H]1OC(=O)[C@H](C)C(=O)[C@H](C)[C@@H](O[C@@H]2O[C@H](C)C[C@H](N(C)C)[C@H]2O)[C@](C)(OC)C[C@@H](C)C(=O)[C@H](C)[C@H]2[C@@H](SCC(=O)Nc3ccccc3-c3ccccc3OC)C(=O)O[C@@]21C (single isomer, unassigned) [Example 53] | 16 µg/mL (≈ 18.1 µM) | 16 µg/mL (≈ 18.1 µM) | 8 µg/mL (≈ 9.06 µM) | 8 µg/mL (≈ 9.06 µM) | 1 µg/mL (≈ 1.13 µM) | >32 µg/mL | 0.5 µg/mL (≈ 0.566 µM) | 16 µg/mL (≈ 18.1 µM) | <=0.06 μg/ml | >32 µg/mL | >32 µg/mL | 0.25 µg/mL (≈ 0.283 µM) | –
CC[C@H]1OC(=O)[C@H](C)C(=O)[C@H](C)[C@@H](O[C@@H]2O[C@H](C)C[C@H](N(C)C)[C@H]2O)[C@](C)(OC)C[C@@H](C)C(=O)[C@H](C)[C@H]2[C@@H](SCCNC(=O)c3cccc4cccnc34)C(=O)O[C@@]21C (single isomer, unassigned) [Example 49] | 4 µg/mL (≈ 4.75 µM) | 16 µg/mL (≈ 19 µM) | 4 µg/mL (≈ 4.75 µM) | 4 µg/mL (≈ 4.75 µM) | <=0.06 μg/ml | >32 µg/mL | <=0.06 μg/ml | 2 µg/mL (≈ 2.38 µM) | <=0.06 μg/ml | >32 µg/mL | 16 µg/mL (≈ 19 µM) | <=0.06 μg/ml | –
